According to US20250122183A1 (Pfizer Inc., priority 2023, published 2025):

Key:
Format in all cases: biochemical
KAT6A Full length enzyme = KAT6A Full length enzyme (Homo sapiens (Human), UniProt Q92794); experiment: KAT6A assay (SAMDI-MS acetylation of H3 1-21 peptide); settings: Morrison equation fit; replicate number in parentheses; read-out: KAT6A Ki (nM) (replicate number)
[1] = molecular target: KAT7+BRPF1+EAF6+ING5 4 protein complex (Homo sapiens (Human), UniProt O95251); experiment: KAT7 BRPF1 assay (SAMDI-MS acetylation of H3 1-21 peptide); settings: Morrison equation fit; replicate number in parentheses
[2] = molecular target: KAT7+BRPF2+EAF6+ING5 4 protein complex (Homo sapiens (Human), UniProt O95251); experiment: KAT7 BRPF2 assay (SAMDI-MS acetylation of H3 1-21 peptide); settings: Morrison equation fit; replicate number in parentheses; read-out: KAT7 BRPF2 Ki (nM) (replicate number)
[3] = molecular target: KAT7+JADE1+EAF6+ING5 4 protein complex (Homo sapiens (Human), UniProt O95251); experiment: KAT7 JADE1 assay (SAMDI-MS acetylation of H3 1-21 peptide); settings: Morrison equation fit; replicate number in parentheses; read-out: KAT7 JADE1 Ki (nM) (replicate number)
KAT8 Full length enzyme = KAT8 Full length enzyme (Homo sapiens (Human), UniProt Q9H7Z6); experiment: KAT8 assay (SAMDI-MS acetylation of H3 1-21 peptide); settings: Morrison equation fit; replicate number in parentheses; read-out: KAT8 Ki (nM) (replicate number)
KAT5 Full length enzyme = KAT5 Full length enzyme (Homo sapiens (Human), UniProt Q92993); experiment: KAT5 assay (SAMDI-MS acetylation of H4 1-21 peptide); settings: Morrison equation fit; replicate number in parentheses; read-out: KAT5 Ki (nM) (replicate number)
Sequence of KAT5 Full length enzyme (Q92993 whole entry): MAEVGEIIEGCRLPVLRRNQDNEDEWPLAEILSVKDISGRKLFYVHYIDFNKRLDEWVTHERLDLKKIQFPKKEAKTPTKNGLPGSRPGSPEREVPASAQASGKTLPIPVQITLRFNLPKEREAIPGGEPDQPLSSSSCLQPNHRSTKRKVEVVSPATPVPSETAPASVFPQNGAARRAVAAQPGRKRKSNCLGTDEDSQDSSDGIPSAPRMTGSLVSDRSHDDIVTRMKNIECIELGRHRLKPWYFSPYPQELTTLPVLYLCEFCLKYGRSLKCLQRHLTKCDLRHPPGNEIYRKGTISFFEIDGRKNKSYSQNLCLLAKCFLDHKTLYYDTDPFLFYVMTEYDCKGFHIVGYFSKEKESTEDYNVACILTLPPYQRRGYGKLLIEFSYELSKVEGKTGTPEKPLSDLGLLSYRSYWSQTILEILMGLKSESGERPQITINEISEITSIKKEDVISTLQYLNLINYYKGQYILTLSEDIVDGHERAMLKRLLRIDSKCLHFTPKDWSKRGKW

Sequence of KAT8 Full length enzyme (Q9H7Z6 whole entry): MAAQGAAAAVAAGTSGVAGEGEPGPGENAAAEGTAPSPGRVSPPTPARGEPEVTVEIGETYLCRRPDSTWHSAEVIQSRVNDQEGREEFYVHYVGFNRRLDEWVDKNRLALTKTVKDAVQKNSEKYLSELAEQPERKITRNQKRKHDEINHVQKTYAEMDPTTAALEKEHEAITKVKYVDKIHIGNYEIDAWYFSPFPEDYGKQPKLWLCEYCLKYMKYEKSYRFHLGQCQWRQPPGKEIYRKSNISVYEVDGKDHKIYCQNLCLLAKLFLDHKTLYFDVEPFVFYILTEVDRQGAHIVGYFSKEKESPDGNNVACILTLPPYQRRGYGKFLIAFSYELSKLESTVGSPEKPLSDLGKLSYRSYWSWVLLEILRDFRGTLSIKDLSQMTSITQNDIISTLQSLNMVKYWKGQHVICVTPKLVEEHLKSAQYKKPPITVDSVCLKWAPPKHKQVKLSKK
Sequence of KAT6A Full length enzyme (Q92794 other isoform, or with tags, fused parts or gaps): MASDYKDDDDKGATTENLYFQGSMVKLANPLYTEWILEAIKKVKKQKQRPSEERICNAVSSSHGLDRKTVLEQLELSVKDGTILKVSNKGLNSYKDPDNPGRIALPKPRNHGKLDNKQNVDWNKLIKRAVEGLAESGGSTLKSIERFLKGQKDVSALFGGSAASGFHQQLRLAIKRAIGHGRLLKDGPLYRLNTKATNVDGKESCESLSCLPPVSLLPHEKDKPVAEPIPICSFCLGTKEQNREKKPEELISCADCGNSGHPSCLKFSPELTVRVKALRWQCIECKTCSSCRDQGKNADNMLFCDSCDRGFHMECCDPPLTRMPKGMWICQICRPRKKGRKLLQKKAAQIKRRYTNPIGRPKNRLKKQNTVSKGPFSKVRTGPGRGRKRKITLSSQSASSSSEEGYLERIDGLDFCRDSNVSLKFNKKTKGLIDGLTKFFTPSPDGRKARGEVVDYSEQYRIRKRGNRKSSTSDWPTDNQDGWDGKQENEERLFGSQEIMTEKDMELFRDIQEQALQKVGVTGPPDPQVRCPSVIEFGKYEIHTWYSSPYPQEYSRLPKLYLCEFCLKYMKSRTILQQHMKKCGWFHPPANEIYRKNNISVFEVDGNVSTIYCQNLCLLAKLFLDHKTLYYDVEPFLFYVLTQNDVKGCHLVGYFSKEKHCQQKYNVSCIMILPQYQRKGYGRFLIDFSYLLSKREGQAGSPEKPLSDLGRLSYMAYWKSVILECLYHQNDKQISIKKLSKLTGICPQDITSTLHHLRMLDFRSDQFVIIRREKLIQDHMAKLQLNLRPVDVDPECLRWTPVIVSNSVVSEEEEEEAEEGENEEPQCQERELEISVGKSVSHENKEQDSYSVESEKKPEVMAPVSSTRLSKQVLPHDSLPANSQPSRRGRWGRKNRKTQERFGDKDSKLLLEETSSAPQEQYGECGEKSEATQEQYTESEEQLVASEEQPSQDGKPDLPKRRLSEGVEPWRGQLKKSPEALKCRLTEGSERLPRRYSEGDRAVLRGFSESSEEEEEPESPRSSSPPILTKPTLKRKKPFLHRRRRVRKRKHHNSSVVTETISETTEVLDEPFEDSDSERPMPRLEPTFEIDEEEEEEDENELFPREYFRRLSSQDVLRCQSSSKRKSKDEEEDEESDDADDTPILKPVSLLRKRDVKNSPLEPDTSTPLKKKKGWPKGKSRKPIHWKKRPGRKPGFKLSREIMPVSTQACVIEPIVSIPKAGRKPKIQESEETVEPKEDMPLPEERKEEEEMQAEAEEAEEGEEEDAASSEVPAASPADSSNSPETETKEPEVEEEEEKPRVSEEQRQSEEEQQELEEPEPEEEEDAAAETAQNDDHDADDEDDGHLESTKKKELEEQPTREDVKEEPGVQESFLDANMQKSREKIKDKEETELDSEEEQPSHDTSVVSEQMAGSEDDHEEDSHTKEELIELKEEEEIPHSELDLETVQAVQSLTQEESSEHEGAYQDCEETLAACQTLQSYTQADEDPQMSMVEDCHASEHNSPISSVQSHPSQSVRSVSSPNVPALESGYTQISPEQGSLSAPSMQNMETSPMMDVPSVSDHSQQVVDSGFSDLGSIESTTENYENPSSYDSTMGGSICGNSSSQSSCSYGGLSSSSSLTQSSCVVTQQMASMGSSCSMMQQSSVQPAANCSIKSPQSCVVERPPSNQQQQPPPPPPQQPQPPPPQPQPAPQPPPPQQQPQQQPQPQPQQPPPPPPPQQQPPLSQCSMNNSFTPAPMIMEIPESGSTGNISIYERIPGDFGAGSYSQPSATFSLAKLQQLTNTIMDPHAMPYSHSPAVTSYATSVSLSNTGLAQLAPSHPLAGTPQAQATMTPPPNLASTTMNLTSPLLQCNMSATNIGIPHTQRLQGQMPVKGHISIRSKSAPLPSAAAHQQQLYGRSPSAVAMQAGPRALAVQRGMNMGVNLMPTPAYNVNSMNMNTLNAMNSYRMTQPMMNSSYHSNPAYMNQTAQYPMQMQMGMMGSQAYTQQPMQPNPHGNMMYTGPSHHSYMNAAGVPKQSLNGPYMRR

SMILES | Ki (KAT6A Full length enzyme) [nM] | Ki [1] [nM] | Ki [2] [nM] | Ki [3] [nM] | Ki (KAT8 Full length enzyme) [nM] | Ki (KAT5 Full length enzyme) [nM]
CCOc1cc(C)ccc1S(=O)(=O)Nc1noc2cc(Nc3cc(C(C)C)[nH]n3)c(OC)cc12 [Example 78, 2-ethoxy-N-(5-methoxy-6-{[5-(propan-2-yl)-1H-pyrazol-3-yl]amino}-1,2-benzoxazol-3-yl)-4-methylbenzene-1-sulfonamide] | 2.5 | 40.2 | 54.4 | 109 | 8730 | 354
CCOc1cc(C)c(F)cc1S(=O)(=O)Nc1noc2cc(Nc3cc(C(C)C)[nH]n3)c(OC)cc12 [Example 79, 2-ethoxy-5-fluoro-N-(5-methoxy-6-{[5-(propan-2-yl)-1H-pyrazol-3-yl]amino}-1,2-benzoxazol-3-yl)-4-methylbenzene-1-sulfonamide] | 5.1 | 25.2 | 26.5 | 119 | 6570 | 692
COc1cc2c(NS(=O)(=O)c3cc4c(cc3OC)CCCC4)noc2cc1Nc1cc(C)n[nH]1 [Example 82, 3-methoxy-N-{5-methoxy-6-[(3-methyl-1H-pyrazol-5-yl)amino]-1,2-benzoxazol-3-yl}-5,6,7,8-tetrahydronaphthalene-2-sulfonamide] | 0.1 | 7.5 | 18.3 | 31.8 | 467 | 33.8
COc1cc2c(NS(=O)(=O)c3c(OC)cccc3OC)noc2cc1Nc1cc(C)n[nH]1 [Example 84, 2,6-dimethoxy-N-{5-methoxy-6-[(3-methyl-1H-pyrazol-5-yl)amino]-1,2-benzoxazol-3-yl}benzene-1-sulfonamide] | 0.2 | 12.2 | 10.1 | 50.6 | 2970 | 82.3
COc1cc2c(NS(=O)(=O)c3c(OC)cc([C@H]4COCCO4)cc3OC)noc2cc1Nc1cc(C2CC2)[nH]n1 [Example 146] | 0.9 | 2.4 | 1.7 | 3.2 | 865 | 31.4
